The results in this text go back to ChEMBL document CHEMBL2440005, “Discovery and structure-activity relationships of 6-(benzoylamino)benzoxaboroles as orally active anti-inflammatory agents” (Bioorg Med Chem Lett, 2013).

The source made the active and inactive calls. No cut-off for these calls is given here.

Series [1] deals with Protein kinase C beta type (Homo sapiens) (UniProt P05771). The series can be described thus: Inhibition of PKCbeta (unknown origin) at 30 uM.
Series [2] deals with Dual specificity mitogen-activated protein kinase kinase 1 (Homo sapiens) (UniProt Q02750). Briefly: Inhibition of MEK1 (unknown origin) at 30 uM.
Dual specificity mitogen-activated protein kinase kinase 1 (Homo sapiens), sequence (Q02750 whole entry): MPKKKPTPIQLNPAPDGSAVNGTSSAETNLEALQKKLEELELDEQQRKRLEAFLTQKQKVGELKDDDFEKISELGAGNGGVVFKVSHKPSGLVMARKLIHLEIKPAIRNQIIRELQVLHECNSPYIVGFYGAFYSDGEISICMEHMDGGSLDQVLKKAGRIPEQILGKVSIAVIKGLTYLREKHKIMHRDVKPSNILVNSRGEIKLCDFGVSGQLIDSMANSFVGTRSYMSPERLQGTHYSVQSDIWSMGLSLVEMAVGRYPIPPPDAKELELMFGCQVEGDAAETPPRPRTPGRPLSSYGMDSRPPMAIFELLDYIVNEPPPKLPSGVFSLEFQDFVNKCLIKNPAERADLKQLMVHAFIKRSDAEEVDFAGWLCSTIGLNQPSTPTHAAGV
The target of series [3] is Interleukin-1 receptor-associated kinase 1 (Homo sapiens) (UniProt P51617). Briefly: Inhibition of IRAK1 (unknown origin) at 30 uM.
Series [4] can be described thus: Oral bioavailability in mouse at 4 mg/kg. The class given is ADME, organism-based. Conditions: in vivo.
Series [5] addresses Mitogen-activated protein kinase kinase kinase 8 (Homo sapiens) (UniProt P41279). Briefly: Inhibition of MAP3K8 (unknown origin) at 30 uM.
Series [6] deals with Phosphatidylinositol 4,5-bisphosphate 3-kinase catalytic subunit beta isoform (Homo sapiens) (UniProt P42338). The series can be described thus: Inhibition of PI3Kbeta (unknown origin) at 30 uM.
Phosphatidylinositol 4,5-bisphosphate 3-kinase catalytic subunit beta isoform (Homo sapiens), sequence (P42338 whole entry, looked up, canonical isoform): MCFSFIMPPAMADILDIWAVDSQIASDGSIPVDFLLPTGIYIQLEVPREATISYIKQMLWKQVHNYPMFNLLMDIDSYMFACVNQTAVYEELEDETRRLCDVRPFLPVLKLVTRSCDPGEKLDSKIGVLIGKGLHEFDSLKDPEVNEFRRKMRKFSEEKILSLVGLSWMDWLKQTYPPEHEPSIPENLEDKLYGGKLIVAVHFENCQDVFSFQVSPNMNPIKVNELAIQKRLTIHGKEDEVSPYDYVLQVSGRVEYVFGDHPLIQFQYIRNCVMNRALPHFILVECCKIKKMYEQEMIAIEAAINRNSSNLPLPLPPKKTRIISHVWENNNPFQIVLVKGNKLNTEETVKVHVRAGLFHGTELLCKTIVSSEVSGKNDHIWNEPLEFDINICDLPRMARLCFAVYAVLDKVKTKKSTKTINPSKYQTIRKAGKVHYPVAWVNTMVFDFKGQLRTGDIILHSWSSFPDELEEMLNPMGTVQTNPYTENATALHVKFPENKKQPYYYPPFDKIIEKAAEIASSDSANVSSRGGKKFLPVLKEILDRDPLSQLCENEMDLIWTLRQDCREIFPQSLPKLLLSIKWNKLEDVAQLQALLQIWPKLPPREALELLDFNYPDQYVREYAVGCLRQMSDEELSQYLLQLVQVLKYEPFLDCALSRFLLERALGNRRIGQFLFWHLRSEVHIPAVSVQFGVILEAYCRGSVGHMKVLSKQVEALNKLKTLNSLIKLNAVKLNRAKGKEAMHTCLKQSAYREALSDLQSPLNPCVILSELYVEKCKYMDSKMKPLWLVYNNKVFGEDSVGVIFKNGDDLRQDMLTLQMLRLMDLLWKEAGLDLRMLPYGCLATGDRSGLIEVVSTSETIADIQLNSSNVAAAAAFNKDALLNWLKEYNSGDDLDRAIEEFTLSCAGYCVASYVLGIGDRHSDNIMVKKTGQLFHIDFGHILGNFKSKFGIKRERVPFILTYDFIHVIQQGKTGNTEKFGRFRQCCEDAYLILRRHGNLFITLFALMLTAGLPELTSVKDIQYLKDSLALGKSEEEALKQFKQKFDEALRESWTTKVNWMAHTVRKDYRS
Series [7] addresses Prostaglandin G/H synthase 2 (Homo sapiens) (UniProt P35354). Briefly: Inhibition of COX2 (unknown origin) up to 25 uM.
In series [8] the target is Protein kinase C alpha type (Homo sapiens) (UniProt P17252). Briefly: Inhibition of PKCalpha (unknown origin) at 30 uM.
In another series the test system is Mus musculus. The series can be described thus: Antiinflammatory activity in po dosed mouse assessed as inhibition of LPS-induced IL-6 production administered 1 hr prior to LPS challenge measured after 1 hr. The class given is functional, organism-based.
Series [9] can be described thus: Cmax in mouse at 4 mg/kg, po. Also noted: dose 4 mg/kg, route oral. The class given is ADME, organism-based. Conditions: in vivo.
In the next series the test system is PBMC. Briefly: Antiinflammatory activity in human PBMC assessed as inhibition of LPS-induced IL-1beta release incubated for 15 mins prior to LPS-challenge measured after 24 hrs by HTRF assay. In kind it is functional, cell-based.
Series [10] deals with Tyrosine-protein kinase JAK2 (Homo sapiens) (UniProt O60674). The series can be described thus: Inhibition of JAK2 (unknown origin) at 30 uM.
Tyrosine-protein kinase JAK2 (Homo sapiens), sequence (O60674 whole entry): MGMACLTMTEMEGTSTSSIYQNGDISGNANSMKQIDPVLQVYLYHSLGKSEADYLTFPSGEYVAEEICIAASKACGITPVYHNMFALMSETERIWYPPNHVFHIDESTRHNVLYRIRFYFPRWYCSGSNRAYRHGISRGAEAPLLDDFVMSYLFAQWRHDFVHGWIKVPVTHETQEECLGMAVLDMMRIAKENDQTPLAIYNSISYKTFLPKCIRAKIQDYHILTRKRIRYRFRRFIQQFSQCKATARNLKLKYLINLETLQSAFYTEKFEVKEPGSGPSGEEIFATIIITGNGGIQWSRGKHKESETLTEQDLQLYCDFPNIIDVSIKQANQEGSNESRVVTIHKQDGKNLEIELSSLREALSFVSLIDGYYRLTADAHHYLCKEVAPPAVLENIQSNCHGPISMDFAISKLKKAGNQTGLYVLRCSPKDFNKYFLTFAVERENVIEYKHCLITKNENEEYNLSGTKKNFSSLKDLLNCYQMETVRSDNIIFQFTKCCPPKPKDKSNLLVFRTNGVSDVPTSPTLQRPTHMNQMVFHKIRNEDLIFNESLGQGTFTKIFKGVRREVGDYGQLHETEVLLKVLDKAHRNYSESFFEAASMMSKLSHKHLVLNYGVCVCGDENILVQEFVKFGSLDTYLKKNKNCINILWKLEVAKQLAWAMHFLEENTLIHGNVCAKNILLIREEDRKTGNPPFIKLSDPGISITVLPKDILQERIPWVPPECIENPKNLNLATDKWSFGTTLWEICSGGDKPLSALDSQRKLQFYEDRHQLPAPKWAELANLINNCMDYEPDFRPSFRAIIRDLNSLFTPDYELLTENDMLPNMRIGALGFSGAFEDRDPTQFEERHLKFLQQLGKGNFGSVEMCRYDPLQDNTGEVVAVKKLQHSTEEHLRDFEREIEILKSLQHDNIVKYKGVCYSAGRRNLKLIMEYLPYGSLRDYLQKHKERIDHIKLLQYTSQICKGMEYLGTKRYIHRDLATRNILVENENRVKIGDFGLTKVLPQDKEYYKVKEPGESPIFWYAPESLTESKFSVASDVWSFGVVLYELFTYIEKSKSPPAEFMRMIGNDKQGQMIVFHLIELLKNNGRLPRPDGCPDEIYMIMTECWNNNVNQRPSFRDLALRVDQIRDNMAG
Series [11] deals with Prostaglandin G/H synthase 1 (Homo sapiens) (UniProt P23219). The series can be described thus: Inhibition of COX1 (unknown origin) up to 25 uM.
Series [12] in a line: Terminal half life in mouse at 2 mg/kg, iv. The conditions noted are these: in vivo, read-out: beta t1/2 (converted). More on the design: dose 2 mg/kg, route intravenous. In kind it is ADME, organism-based.
The nature of series [13]: Clearance in mouse at 2 mg/kg, iv. The class given is ADME, organism-based. Also noted: dose 2 mg/kg, route intravenous. Conditions: in vivo.
The target in series [14] is Rho-associated protein kinase 2 (Homo sapiens) (UniProt O75116). The series can be described thus: Inhibition of ROCK2 (unknown origin) at 30 uM.
The target in series [15] is Dual specificity mitogen-activated protein kinase kinase 6 (Homo sapiens) (UniProt P52564). Briefly: Inhibition of MKK6 (unknown origin) at 30 uM.
Dual specificity mitogen-activated protein kinase kinase 6 (Homo sapiens), sequence (P52564 whole entry): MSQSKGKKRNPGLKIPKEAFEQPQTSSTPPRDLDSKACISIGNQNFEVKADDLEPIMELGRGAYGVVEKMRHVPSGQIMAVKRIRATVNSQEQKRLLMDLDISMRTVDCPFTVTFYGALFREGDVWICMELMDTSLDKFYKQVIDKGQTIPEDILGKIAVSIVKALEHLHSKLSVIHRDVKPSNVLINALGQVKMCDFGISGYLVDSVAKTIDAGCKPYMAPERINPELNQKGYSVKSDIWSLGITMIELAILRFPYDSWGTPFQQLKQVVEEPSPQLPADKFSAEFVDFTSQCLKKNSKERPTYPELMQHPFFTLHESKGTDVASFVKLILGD
The target of series [16] is Mitogen-activated protein kinase 11 (Homo sapiens) (UniProt Q15759). Briefly: Inhibition of p38beta (unknown origin) at 30 uM.
Series [17] deals with MAP kinase-activated protein kinase 5 (Homo sapiens) (UniProt Q8IW41). Briefly: Inhibition of MAPKAPK5 (unknown origin) at 30 uM.
Series [18] deals with Mitogen-activated protein kinase 8 (Homo sapiens) (UniProt P45983). Briefly: Inhibition of JNK1 (unknown origin) at 30 uM.
A short description of series [19]: Volume of distribution at steady state in mouse at 2 mg/kg, iv. More on the design: dose 2 mg/kg, route intravenous. The conditions noted are these: in vivo, read-out: Vdss. In kind it is ADME, organism-based.

Prostaglandin G/H synthase 2 (Homo sapiens), sequence (P35354 whole entry): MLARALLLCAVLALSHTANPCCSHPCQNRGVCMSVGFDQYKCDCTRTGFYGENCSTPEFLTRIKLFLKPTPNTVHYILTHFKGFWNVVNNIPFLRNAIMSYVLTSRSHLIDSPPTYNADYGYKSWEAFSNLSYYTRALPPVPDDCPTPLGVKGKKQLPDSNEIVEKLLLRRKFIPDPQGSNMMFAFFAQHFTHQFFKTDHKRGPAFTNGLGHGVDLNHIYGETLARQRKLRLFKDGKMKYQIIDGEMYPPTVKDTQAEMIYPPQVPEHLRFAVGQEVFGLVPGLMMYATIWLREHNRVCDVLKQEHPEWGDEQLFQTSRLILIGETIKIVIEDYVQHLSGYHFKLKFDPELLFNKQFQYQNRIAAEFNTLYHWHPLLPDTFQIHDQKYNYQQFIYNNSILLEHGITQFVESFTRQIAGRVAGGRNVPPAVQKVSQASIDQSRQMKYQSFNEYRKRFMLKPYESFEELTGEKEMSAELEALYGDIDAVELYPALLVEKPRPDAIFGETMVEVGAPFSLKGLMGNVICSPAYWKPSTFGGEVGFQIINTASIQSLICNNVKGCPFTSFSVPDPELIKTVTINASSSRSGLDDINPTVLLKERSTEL
Protein kinase C beta type (Homo sapiens), sequence (P05771 2-671 limits assumed): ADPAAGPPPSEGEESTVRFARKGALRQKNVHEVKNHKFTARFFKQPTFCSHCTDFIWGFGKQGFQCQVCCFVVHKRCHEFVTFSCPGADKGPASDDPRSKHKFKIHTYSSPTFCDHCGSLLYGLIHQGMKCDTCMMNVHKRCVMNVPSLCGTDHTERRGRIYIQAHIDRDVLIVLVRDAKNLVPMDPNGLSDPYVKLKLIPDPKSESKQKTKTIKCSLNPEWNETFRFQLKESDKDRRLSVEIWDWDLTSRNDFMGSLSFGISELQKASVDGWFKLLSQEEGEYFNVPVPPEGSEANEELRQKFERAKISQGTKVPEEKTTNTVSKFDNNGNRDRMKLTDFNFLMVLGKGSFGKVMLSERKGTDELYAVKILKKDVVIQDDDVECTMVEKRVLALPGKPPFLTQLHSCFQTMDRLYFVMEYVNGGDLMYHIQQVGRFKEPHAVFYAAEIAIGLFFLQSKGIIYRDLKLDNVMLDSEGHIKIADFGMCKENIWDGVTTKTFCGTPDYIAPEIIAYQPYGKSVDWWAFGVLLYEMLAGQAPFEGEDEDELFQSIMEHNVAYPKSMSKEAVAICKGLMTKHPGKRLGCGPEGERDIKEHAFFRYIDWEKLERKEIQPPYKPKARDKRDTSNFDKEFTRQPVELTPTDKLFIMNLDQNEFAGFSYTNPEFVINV

In the case of `O=C(Nc1ccc2c(c1)B(O)OC2)c1c(C(F)(F)F)ccc(Cl)c1F`, the inhibition entry in [1], in series [2], in [3], in series [5], in series [6] and in series [7] was “inactive” throughout. Also, the inhibition entry in series [10], in series [11], in series [14], in [15], in [16] and in series [17] was “inactive” in each case. Further, the inhibition entry in series [18] was “inactive”. In series [4], this compound displayed a bioavailability of 71%. Moreover, the inhibition is 62% in series [8] and “Dose-dependent effect” in the series on Mus musculus. This compound also registered a Cmax in series [9] of 5650 ng/mL. Further, in the series with PBMC, the IC50 was found to be 190 nM. Further, in series [12], the half-life was 7.85 h. Moreover, the clearance in [13] was 0.683 mL/min/kg. For the same compound, the Vd in series [19] turned out to be 0.41 L/kg.
